According to patent publication US10487143B2, “Vaccines against HER3 antigens and methods of using the same” (Duke University, priority 2016, dated 2019):

Key:
[1] = system: HLA-A*0201-positive, but HER3-negative LNCaP cells; assay: Human CTL (51Cr release) assay on LNCaP target cells; format: cell-based; conditions: effector to target ratio 25 to 1, FIG. 2B
Procedure: (§1) Immature human DCs (Dendritic cells) were loaded for 2 hours at 10 μM with peptides, washed and then co-cultured with untouched autologous T cells (isolated via magnetic bead-based separation) at a DC to T-cell ratio of 1:20 in complete RPMI media supplemented with 12.5 μg/mL pIC, (polyinosinic-polycytidylic acid, Sigma) and 1.0 μg/mL recombinant CD40L plus 1.0 μg/mL Enhancer (Alexis Biochemicals). 20 U/ml of recombinant human Interleukin-2 (IL-2) were added after 3 days and every other day thereafter. Cells were re-stimulated twice after 7 days (DC to T cell ratio of 1:10) and analyzed for cytolytic activity 10 days after the last re-stimulation.
2×10^6 target cells were harvested, washed, counted, and labeled with 100 μCi of Na2^51CrO4 (Amersham) in 0.5 ml complete RPMI at 37° C. for 1.5 h. Exogenous loading of cells with 10 μM synthetic peptide was performed simultaneously with labeling reactions. CTLs (untouched CD8^+ T cells isolated via magnetic-bead-based techniques (Miltenyi Biotec)) were washed, counted, and diluted to the desired density in complete RPMI 1640 and plated in duplicate wells in a round-bottomed, 96-well plate. Target cells were washed three times, resuspended in complete RPMI and incubated at 37° C. and 5% CO2. […] Supernatants were harvested and counted in a gamma counter. Duplicate wells were averaged, and the percentage of specific lysis was calculated as: […]

[2] = system: murine CD8+ T cells stimulated with peptide-pulsed T2 cells; assay: IFN-γ ELISPOT after peptide vaccination of HLA-A*0201-transgenic mice; format: in vivo; conditions: mice immunized with mixture of 100 μg of each peptide in PBS:Montanide ISA 51, 3 weekly vaccinations; CD8+ T cells stimulated with the same epitope on T2 cells; FIG. 1
Description: To further validate the identified HER-3-derived peptide epitopes (SEQ ID NO: 1 and SEQ ID NO: 3), we vaccinated HLA-A*0201-transgenic mice with these peptides. Female CB6F1-Tg(HLA-A*0201/H2-K^b) A*0201 mice were purchased from Charles River Laboratories (Raleigh, N.C.). These animals carry a transgene consisting of fragments of the human HLA-A*0201 gene and mouse H2-K^b gene which encodes a chimeric class I molecule consisting of the human HLA-A2.1 leader, α1 and α2 domains ligated to the murine α3, transmembrane and cytoplasmic H2-K^b domain Mice were maintained in a specific pathogen-free environment. All mice were used at 8 to 12 weeks of age. Animals were housed in a specific pathogen-free environment at the animal facility of the DUKE University Medical Center. All mice used in this study were cared for in accordance with the Guide for Humane care and use of Laboratory Animals published by the National Institutes of Health. All the animal experimental protocols were approved by the Duke University Medical Center Institutional Animal Care and Use Committee.
Mice were immunized with a mixture of 100 μg of each peptide emulsified in PBS:Montanide ISA 51 (1:1) (SEPPIC, France). […]
ELISPOT assays were performed without re-stimulation of cells. […] Spots of the dried plate were counted using an ImmunoScan ELISPOT reader (C.T.L., Cellular Technology Ltd.).

[3] = system: HLA-A*0201-positive- and HER3-positive MCF-7 cells; assay: Human CTL (51Cr release) assay on MCF-7 target cells; format: cell-based; conditions: effector to target ratio 25 to 1; for killing of MCF-7 cells by peptide-induced CTL: CTL induced with peptide-loaded (10 μM) human DCs, unloaded MCF-7 targets, FIGS. 2A-2B
Procedure: as §1
2×10^6 target cells were harvested, washed, counted, and labeled with 100 μCi of Na2^51CrO4 (Amersham) in 0.5 ml complete RPMI at 37° C. for 1.5 h. Exogenous loading of cells with 10 μM synthetic peptide was performed simultaneously with labeling reactions. CTLs (untouched CD8^+ T cells isolated via magnetic-bead-based techniques (Miltenyi Biotec)) were washed, counted, and diluted to the desired density in complete RPMI 1640 and plated in duplicate wells in a round-bottomed, 96-well plate. Target cells were washed three times, resuspended in complete RPMI and incubated at 37° C. and 5% CO2. After 1 h, cells were washed one more time, diluted to 10^4 cells/ml and co-incubated with CTLs at indicated effector to target ratio of 25 to 1. The plates were spun briefly at 800×g and incubated for 4-5 h at 37° C. Supernatants were harvested and counted in a gamma counter. Duplicate wells were averaged, and the percentage of specific lysis was calculated as: […]

Sequence	killing of epitope-loaded LNCaP cells by peptide-specific CTL ([1]; LNCaP targets loaded with 10 μM HER3943-954)	killing of LNCaP cells by peptide-specific CTL ([1]; unloaded HER3-negative LNCaP targets)	induction of epitope-specific CD8+ T cells producing IFN-γ (ELISPOT) [2]	killing of MCF-7 cells by peptide-induced CTL [3]	killing of epitope-loaded MCF-7 cells by peptide-induced CTL ([3]; target cells loaded with 10 μM HER3943-954, FIG. 2B)
VMVKCWMIDENI (Synthetic HER3 Antigen 3) [HER3943-954]	Killing	did not kill	induced epitope-specific CD8^+ T cells	killed MCF-7 cells efficiently	cytolytic activity could further be enhanced
LAEVPDLLE (Synthetic HER3 Antigen 1) [HER3917-925]			failed to induce CD8^+ T cells that produced IFN-γ	failed to induce HERS-specific CTLs	
